Results as given in US20230080670A1, “METHODS AND COMPOSITIONS FOR TREATING TUMORS USING TRANSCRIPTION INHIBITION AND DNA DAMAGE” (ARIZONA BOARD OF REGENTS ON BEHALF OF THE UNIVERSITY OF …, priority 2019, published 2023).
“Also recorded” adds a separate entry of the source.

Tests used:
[1] = system: A673 cells; assay: MTT cell survival assay, A673 Ewing's sarcoma cell line; assay type: cell-based; conditions: 96 hours
Procedure: It was tested whether the functional interaction of EWS or FUS with the fusion protein driving Ewing's sarcoma would make these cells exceptionally sensitive to transcription inhibitors.
The DNA damage agent SN38 and the transcription inhibitor flavopiridol were titrated, and cell survival was measured after 96 hours using an MTT assay (see FIG. 3A).

[2] = system: gammaH2Ax; assay: Western blot of gammaH2Ax DNA damage response, A673 cells; assay type: cell-based
[3] = system: gammaH2Ax; assay: Western blot of gammaH2Ax DNA damage response, HEK293 cells; assay type: cell-based; conditions: flavopiridol added to SN38, 24 hours
Procedure: All doses shown are in nanomolar, nM.
Western blot analysis: Protein lysates concentrations were quantified using BCA Protein Assay (Pierce). 5-10 ug of protein sample was loaded onto 7.5% SDS-PAGE gels. Standard western blot protocols were followed. Blots were transferred at 500 mA, blocked in 5% nonfat dried milk in TBS-T, and incubated overnight with primary antibody at 4° C. Blots were washed in TBS-T, incubated in secondary antibody for 1 hour at room temperature, washed again in TBS-T, and imaged after the addition of SuperSignal™ West Pico PLUS Chemiluminescent substrate (Thermo Scientific). Western blots were imaged on the ChemiDoc.

[4] = system: patients; conditions: therapeutic doses; cited from earlier work

Row | Compound | toxicity (cell survival, MTT assay) ([1]; 100 nM flavopiridol alone) | inhibition of the gamma H2Ax response to DNA damage (quantification of western blots) ([2]; A673 cells, 10 nM, 50 nM and 100 nM flavopiridol) | effect on phosphorylation of histone to gammaH2Ax (DNA damage response) ([2]; transcription inhibitor added to SN38, 24 hours, Ewing's sarcoma cell line) | effect on gammaH2Ax response to DNA damage [3] | toxicity in patients [4] | toxicity (cell survival, MTT assay) ([1]; 1.3 nM SN38 alone) | gammaH2Ax DNA damage response ([2]; SN38 for 24 hours without transcription inhibitor, Ewing's sarcoma cell line)
1 | CN1CC[C@H](c2c(O)cc(O)c3c(=O)cc(-c4ccccc4Cl)oc23)[C@H](O)C1 [flavopiridol] | No toxicity | dose-dependent inhibition | prevented this event | does not prevent the normal cellular response to DNA damage; also recorded: had no such effect | significant toxicity | – | –
2 | CCc1c2c(nc3ccc(O)cc13)-c1cc3c(c(=O)n1C2)COC(=O)[C@]3(O)CC [SN38] | – | – | – | – | – | No toxicity | standard DNA damage response
